We go through 5 compounds from ChEMBL document CHEMBL1140749, “Novel copper(II) complex of N-propyl-norfloxacin and 1,10-phenanthroline with enhanced antileukemic and DNA nuclease activities” (2008).

Holding throughout (type): functional
One experiment has as its system Staphylococcus aureus. Nature of the experiment: Antibacterial activity against Staphylococcus aureus.
The test system of a further experiment is Pseudomonas aeruginosa. Nature of the experiment: Antibacterial activity against Pseudomonas aeruginosa.
Another experiment has as its system Escherichia coli. Nature of the experiment: Antibacterial activity against Escherichia coli.

Values after ≈ are worked out from the molar mass of the structure shown.

As for `CCCN1CCN(c2cc3c(cc2F)c(=O)c(C(=O)O)cn3CC)CC1`, the MIC with Staphylococcus aureus stood at 16 µg/mL (≈ 44.3 µM); with Pseudomonas aeruginosa, 4 µg/mL (≈ 11.1 µM); with Escherichia coli it was 4 µg/mL (≈ 11.1 µM).
With `c1ccc(-c2ccccn2)nc1` [DIPYRIDYL], the MIC in the experiment on Staphylococcus aureus, with Pseudomonas aeruginosa and in the experiment on Escherichia coli was 256 µg/mL (≈ 1640 µM) each time.
In the case of `CCN1CCN(c2cc3c(cc2F)c(=O)c(C(=O)O)cn3C2CC2)CC1` [ENROFLOXACIN], the MIC against Staphylococcus aureus worked out at 8 µg/mL (≈ 22.3 µM); in the experiment with Pseudomonas aeruginosa, 1 µg/mL (≈ 2.78 µM); in the experiment on Escherichia coli, 1 µg/mL (≈ 2.78 µM).
In the case of `CCn1cc(C(=O)O)c(=O)c2cc3c(cc21)OCO3` [OXOLINIC ACID], the MIC in the experiment with Staphylococcus aureus stood at 16 µg/mL (≈ 61.2 µM); against Pseudomonas aeruginosa, 16 µg/mL (≈ 61.2 µM); in the experiment with Escherichia coli it was 1 µg/mL (≈ 3.83 µM).
For `c1cnc2c(c1)ccc1cccnc12` [PHENANTHROLINE], the MIC against Staphylococcus aureus, in the experiment with Pseudomonas aeruginosa and with Escherichia coli was 32 µg/mL (≈ 178 µM) each time.
